Values of other authors in patent US12551470B2, “Metabolism enhancing compositions” (Red Mountain Med Spa, LLC, priority 2022, dated 2026).

Legend:
[1] = compared to the other phytochemicals (11 phytochemicals, Tomer et al., J. Med. Food 2007)
[2] = compared to the other phytochemicals (11 phytochemicals, Tomer et al., J. Med. Food 2007); remark: listed apart in the source

SMILES: O=C(O)CCCC[C@@H]1CCSS1 [α-lipoic acid, (R)-5-(1,2-dithiolan-3-yl)pentanoic acid]
- ORAC values [1]: low
- TOSC values [2]: high
